Test results taken from ChEMBL document CHEMBL1667762, “Synthesis, antidepressant and antifungal evaluation of novel 2-chloro-8-methylquinoline amine derivatives” (Eur J Med Chem, 2011).
≈ marks a conversion by molar mass, not a printed value. Calls of active or inactive are those of the source. The calls are words filed in the database; no cut-off is given here.

What was measured:
Rattus norvegicus [1] = assay: Antidepressant activity in Albino rat assessed as immobility time at 100 mg/kg, ip by forced swimming test (reference value: 112.4 +/- 2.88 sec); type: functional; conditions: route intraperitoneal
Rattus norvegicus [2] = assay: Neurotoxicity in rat assessed as impair in motor coordination at 100 mg/kg, ip after 30 mins by rotarod test (reference value: 116.50 +/- 1.18 sec); type: toxicity, organism-based; design: dose 100 mg/kg, route intraperitoneal; conditions: in vivo, 0.5 h
Aspergillus niger = assay: Antifungal activity against Aspergillus niger MTCC 281 after 72 hrs; type: functional
Aspergillus flavus = assay: Antifungal activity against Aspergillus flavus MTCC 277 after 72 hrs; type: functional; conditions: for MIC: Aspergillus flavus, MTCC 277, 72 h
[3] = Antifungal activity against Monascus purpureus MTCC 369 after 72 hrs; type: functional
Penicillium citrinum = assay: Antifungal activity against Penicillium citrinum NCIM 768 after 72 hrs; type: functional
Rattus norvegicus [4] = organism: Rattus norvegicus; assay: Inhibition of MAO in rat brain homogenate at 0.0005 M using kynuramine as substrate by fluorimetry; type: tissue-based
Rattus norvegicus [5] = assay: Antidepressant activity in Albino rat assessed as immobility time at 20 mg/kg, ip by forced swimming test (reference value: 112.4 +/- 2.88 sec); type: functional; conditions: route intraperitoneal
Rattus norvegicus [6] = organism: Rattus norvegicus; assay: Neurotoxicity in rat assessed as impair in motor coordination at after 30 mins by rotarod test (reference value: 116.50 +/- 1.18 sec); type: toxicity, organism-based; conditions: in vivo, 0.5 h
Rattus norvegicus [7] = organism: Rattus norvegicus; conditions: Brain, 5 uM
Description: Inhibition of MAO in rat brain homogenate at 5 uM using kynuramine as substrate by fluorimetry

[8] = Aspergillus niger, MTCC 281, 72 h
[9] = Penicillium citrinum, NCIM 768, 72 h

Row | Compound | Time (Rattus norvegicus [1]) | Time (Rattus norvegicus [2]) | inhibition zone (IZ) (Aspergillus niger) | MIC (Aspergillus niger; [8]) | inhibition zone (IZ) (Aspergillus flavus) | MIC (Aspergillus flavus) | MIC [3] | inhibition zone (IZ) [3] | inhibition zone (IZ) (Penicillium citrinum) | MIC (Penicillium citrinum; [9]) | inhibition (Rattus norvegicus [4]) | MIC (Penicillium citrinum) | Time (Rattus norvegicus [5]) | Time (Rattus norvegicus [6]) | MIC (Aspergillus niger) | inhibition (Rattus norvegicus [7])
1 | Cc1cccc2cc(CNc3cccc(Cl)c3)c(Cl)nc12 | 76.2 s | 97.83 s | 5.5 mm | 12.5 µg/mL (≈ 39.4 µM) | 6 mm | 12.5 µg/mL (≈ 39.4 µM) | 50 µg/mL (≈ 158 µM) | 6.5 mm | 5.5 mm | 25 µg/mL (≈ 78.8 µM) | 26.8% |  |  |  |  | 
2 | Cc1cccc2cc(CNCc3ccccc3)c(Cl)nc12 | 78.4 s | 98.33 s | 5.5 mm | 12.5 µg/mL (≈ 42.1 µM) | 6 mm | 12.5 µg/mL (≈ 42.1 µM) | 100 µg/mL (≈ 337 µM) | 7 mm | 6.5 mm | 100 µg/mL (≈ 337 µM) |  |  |  |  |  | 
3 | Cc1ccccc1NCc1cc2cccc(C)c2nc1Cl |  |  | 6.5 mm | 100 µg/mL (≈ 337 µM) | 7 mm | 100 µg/mL (≈ 337 µM) | inactive | inactive | inactive |  |  | inactive |  |  |  | 
4 | COc1ccc(NCc2cc3cccc(C)c3nc2Cl)cc1 |  |  | 6.5 mm | 50 µg/mL (≈ 160 µM) | 6.5 mm | 50 µg/mL (≈ 160 µM) | 100 µg/mL (≈ 320 µM) | 5.5 mm | 6.5 mm | 100 µg/mL (≈ 320 µM) |  |  |  |  |  | 
5 | Cc1cccc2cc(CNc3ccc(Br)cc3)c(Cl)nc12 |  |  | 5.5 mm | 25 µg/mL (≈ 69.1 µM) | 6 mm | 25 µg/mL (≈ 69.1 µM) | 100 µg/mL (≈ 276 µM) | 7 mm | 6.5 mm | 100 µg/mL (≈ 276 µM) |  |  |  |  |  | 
6 | CNCCC(Oc1ccc(C(F)(F)F)cc1)c1ccccc1 (stereo unspecified) [FLUOXETINE] |  |  | 10.5 mm | 6.25 µg/mL (≈ 20.2 µM) |  | 6.25 µg/mL (≈ 20.2 µM) | 6.25 µg/mL (≈ 20.2 µM) | 9 mm | 8 mm | 6.25 µg/mL (≈ 20.2 µM) |  |  | 55.4 s | 107.2 s |  | 
7 | Cc1cccc2cc(CNc3ccc([N+](=O)[O-])cc3)c(Cl)nc12 | 86.8 s | 93.5 s | 7 mm | 100 µg/mL (≈ 305 µM) | 6.5 mm | 100 µg/mL (≈ 305 µM) | inactive | inactive | inactive |  |  | inactive |  |  |  | 
8 | Cc1cccc2cc(CNc3ccc(Cl)c(Cl)c3)c(Cl)nc12 | 73.6 s | 90.83 s | 8 mm | 12.5 µg/mL (≈ 35.5 µM) | 9 mm | 12.5 µg/mL (≈ 35.5 µM) | 50 µg/mL (≈ 142 µM) | 8 mm | 6.5 mm | 25 µg/mL (≈ 71.1 µM) | 35% |  |  |  |  | 
9 | OC(Cn1cncn1)(Cn1cncn1)c1ccc(F)cc1F [FLUCONAZOLE] |  |  | 13.5 mm | 6.25 µg/mL (≈ 20.4 µM) | 14.5 mm | 6.25 µg/mL (≈ 20.4 µM) | 6.25 µg/mL (≈ 20.4 µM) | 11 mm | 12 mm | 6.25 µg/mL (≈ 20.4 µM) |  |  |  |  |  | 
10 | Cc1cccc2cc(CNc3ccc(F)c(Cl)c3)c(Cl)nc12 | 74.2 s | 93.67 s | 8.5 mm | 12.5 µg/mL (≈ 37.3 µM) | 8.5 mm | 12.5 µg/mL (≈ 37.3 µM) | 25 µg/mL (≈ 74.6 µM) | 5.5 mm | 6 mm | 25 µg/mL (≈ 74.6 µM) | 32.1% |  |  |  |  | 
11 | Cc1cccc2cc(CNc3ccc(Cl)cc3)c(Cl)nc12 | 77.2 s | 95.17 s | 7.5 mm | 12.5 µg/mL (≈ 39.4 µM) | 6.5 mm | 12.5 µg/mL (≈ 39.4 µM) | 50 µg/mL (≈ 158 µM) | 7 mm | 6 mm | 50 µg/mL (≈ 158 µM) | 23.5% |  |  |  |  | 
12 | Cc1cccc(NCc2cc3cccc(C)c3nc2Cl)c1 |  |  | 6 mm | 100 µg/mL (≈ 337 µM) | 5.5 mm | 100 µg/mL (≈ 337 µM) | inactive | inactive | inactive |  |  | inactive |  |  |  | 
13 | CCCCNCc1cc2cccc(C)c2nc1Cl | 97.2 s | 92.34 s | inactive |  | 5 mm | 200 µg/mL (≈ 761 µM) | inactive | inactive | 5 mm | 200 µg/mL (≈ 761 µM) |  |  |  |  | inactive | 
14 | Cc1cccc2cc(CNc3ccccc3Cl)c(Cl)nc12 |  |  | 5.5 mm | 50 µg/mL (≈ 158 µM) | 6 mm | 50 µg/mL (≈ 158 µM) | 100 µg/mL (≈ 315 µM) | 6.5 mm | 6 mm | 100 µg/mL (≈ 315 µM) |  |  |  |  |  | 
15 | N[C@@H]1C[C@H]1c1ccccc1.N[C@H]1C[C@@H]1c1ccccc1 |  |  |  |  |  |  |  |  |  |  |  |  |  |  |  | 91.6%
16 | Cc1cccc2cc(CNc3ccc(F)cc3)c(Cl)nc12 | 80.4 s | 91.33 s | 6 mm | 12.5 µg/mL (≈ 41.6 µM) | 6 mm | 12.5 µg/mL (≈ 41.6 µM) | 50 µg/mL (≈ 166 µM) | 8 mm | 7 mm | 50 µg/mL (≈ 166 µM) | 19.6% |  |  |  |  | 
17 | Cc1ccc(NCc2cc3cccc(C)c3nc2Cl)cc1 | 96.6 s | 96.5 s | 6 mm | 50 µg/mL (≈ 168 µM) | 7 mm | 50 µg/mL (≈ 168 µM) | 100 µg/mL (≈ 337 µM) | 7.5 mm | 6 mm | 100 µg/mL (≈ 337 µM) |  |  |  |  |  | 
18 | CN(C)CCCN1c2ccccc2CCc2ccc(Cl)cc21 [CLOMIPRAMINE] |  |  |  |  |  |  |  |  |  |  |  |  | 63.4 s | 110.83 s |  | 
19 | Cc1cccc2cc(CNc3ccccc3)c(Cl)nc12 | 103.2 s | 100.33 s | 6 mm | 25 µg/mL (≈ 88.4 µM) | 6.5 mm | 25 µg/mL (≈ 88.4 µM) | 100 µg/mL (≈ 354 µM) | 7 mm | 6 mm | 100 µg/mL (≈ 354 µM) |  |  |  |  |  | 
20 | Cc1cccc2cc(CNC3CCCCC3)c(Cl)nc12 | 76.6 s | 97.17 s | 5.5 mm | 200 µg/mL (≈ 692 µM) | 5.5 mm | 200 µg/mL (≈ 692 µM) | inactive | inactive | 5.5 mm | 200 µg/mL (≈ 692 µM) | 20.6% |  |  |  |  | 
